Experimental findings from US20240132464A1, “HETEROCYCLIC COMPOUNDS AS E3 LIGASE INHIBITORS” (Accutar Biotechnology Inc., priority 2022, published 2024) are described below.

pIC50: −log10 of the molar value.

The target in the test is T1, GID4 (Uniprot ID: Q81VV7, residues 124-289) (Homo sapiens, UniProt Q8IVV7).
T1 construct: GID4 (Uniprot ID: Q81VV7, residues 124-289)
T1 sequence (Q8IVV7 124-289): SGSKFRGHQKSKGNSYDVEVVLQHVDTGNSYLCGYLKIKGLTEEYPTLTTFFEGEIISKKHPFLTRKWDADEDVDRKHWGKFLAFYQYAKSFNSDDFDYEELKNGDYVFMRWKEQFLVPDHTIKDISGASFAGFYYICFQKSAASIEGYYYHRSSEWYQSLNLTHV
In words: GID4 competitive binding assay (AlphaScreen, GID4/degron peptide PGLW). The note with it: 24 nM GID4, 48 nM biotinylated degron peptide PGLW, 4° C., read-out: IC50 (Inhibition of GID4/Degron binding by test compounds). Here is the method:
GID4 Competitive Binding Assay
GID4 binding affinity of compounds disclosed herein was measured by monitoring the interaction of GID4 with its degron peptide (PGLW) in the presence of the test compounds. A truncated version of GID4 (Uniprot ID: Q81VV7, residues 124-289) with a 6*His at its C-terminus was used in this assay. Tetrapeptide, PGLW, was synthesized and tagged with an additional lysine labeled with biotin at its sidechain.
GID4 competitive binding assays were performed in a 384-well plate at 4° C. in a 20 μL reaction volume. Briefly, 24 nM GID4 (final concentration) proteins were pre-incubated with 48 nM biotinylated degron peptide (final concentration) in an assay buffer containing 20 mM HEPES, pH 7.5, 100 mM NaCl, 1 mM DTT, 0.1% Tween-20, and 0.05% BSA in the presence of the test compound in 2% DMSO (final concentration) at various concentrations for 2 h. 5 ug/ml Streptavidin ALphaScreen donor beads and 5 ug/ml nickel chelate (Ni-NTA) ALphaScreen acceptor beads (PerkinElmer, 6760619C) (final concentrations) were then added to the mixture. After an incubation of 1 h at 4° C., the fluorescent signals were obtained on the EnVision® 2105 Multilabel Plate Reader (PerkinElmer).
Raw ALphaScreen data were converted to a percentage of inhibition (relative to DMSO) using the following equations: […]
For a given test compound concentration X:
Signal (X)=Signal (GID4 & peptide & compound)−Signal (GID4 & buffer & compound)
Percentage of inhibition at concentration X=[1−Signal(X)/Signal (DMSO)]*100% b)
The IC50 values were determined by nonlinear regression of plots of [inhibitor] vs. percentage of inhibition with variable slope.
Table 3 summarizes the inhibition of binding between GID4 and degron peptide with compounds of the present disclosure. Compounds were ranked into bins as follows for IC50: A indicates <500 nM; B indicates 500 nM-5000 nM; C indicates >5000 nM.
Take `CC(C)c1cc(N2CCCC(O)(c3ncn4ccccc34)C2)nc(N)n1` (centres unmarked) [Compound 224, 1-(2-amino-6-isopropylpyrimidin-4-yl)-3-(imidazo[1,5-a]pyridin-1-yl)piperidin-3-ol]: the pIC50 was less than 5.30.

For `Brc1ccccc1[C@H]1CN(c2ccnc3[nH]cnc23)CCN1` (racemic) [Compound 34, (S/R)-7-(3-(2-bromophenyl)piperazin-1-yl)-3H-imidazo[4,5-b]pyridine], the pIC50 is less than 5.30.

In the case of `Nc1nccc2ccc(N3CCC(C(=O)N4CCCC4)C3)cc12` (centres unmarked) [Compound 354, (1-(1-aminoisoquinolin-7-yl)pyrrolidin-3-yl)(pyrrolidin-1-yl)methanone], the pIC50 was less than 5.30.

`CNc1cc(N2CCNC(c3ccccc3)C2)nc(N)n1` (single isomer, unassigned) [Compound 128, (R/S)-N4-methyl-6-(3-phenylpiperazin-1-yl)pyrimidine-2,4-diamine]: the pIC50 is less than 5.30.

Take `Cn1nccc1-c1cc(N2CC3CCC(C2)N3)nc2c(-c3cc[nH]n3)nccc12` [Compound 364, 2-(3,8-diazabicyclo[3.2.1]octan-3-yl)-4-(1-methyl-1H-pyrazol-5-yl)-8-(1H-pyrazol-3-yl)-1,7-naphthyridine]: the pIC50 was less than 5.30.

For `CC(C)Nc1nc(C(C)C)cc(N2CCNC(c3ccccc3Br)C2)n1` (single isomer, unassigned) [Compound 150, (S/R)-4-(3-(2-bromophenyl)piperazin-1-yl)-N,6-diisopropylpyrimidin-2-amine], the pIC50 is less than 5.30.

Regarding `CN1CCC(NC(=O)c2cccc(-c3ccc4ccnc(N)c4c3)c2)CC1` [Compound 345, 3-(1-aminoisoquinolin-7-yl)-N-(1-methylpiperidin-4-yl)benzamide], the pIC50 is 5.30 to 6.30.

For `CNc1cc(N2CCC[C@@H](c3ccccc3Br)C2)nc(N)n1` (stereo in doubt) [Compound 87, (S/R)-6-(3-(2-bromophenyl)piperidin-1-yl)-N4-methylpyrimidine-2,4-diamine], the pIC50 was more than 6.30.

As for `Nc1cc(N2CCOC(c3cnc4ccccn34)C2)nc(N)n1` (single isomer, unassigned) [Compound 137, (S/R)-6-(2-(imidazo[1,2-a]pyridin-3-yl)morpholino)pyrimidine-2,4-diamine], the pIC50 was less than 5.30.

Regarding `CN(C)CCCNC(=O)c1ncc(-c2cc(O)c3ncccc3c2)cn1` [Compound 271, N-(3-(dimethylamino)propyl)-5-(8-hydroxyquinolin-6-yl)pyrimidine-2-carboxamide], the pIC50 is more than 6.30.

Take `CN(C)CCCNC(=O)C1CC=C(c2cc(O)c3ncccc3c2)CC1` (centres unmarked) [Compound 305, N-(3-(dimethylamino)propyl)-4-(8-hydroxyquinolin-6-yl)cyclohex-3-ene-1-carboxamide]: the pIC50 is 5.30 to 6.30.

In the case of `Nc1nc(C2CC2)cc(N2CCN[C@@H](c3ccccc3Br)C2)n1` (stereo in doubt) [Compound 133, (S/R)-4-(3-(2-bromophenyl)piperazin-1-yl)-6-cyclopropylpyrimidin-2-amine], the pIC50 is 5.30 to 6.30.

Take `Cc1cc(C(=O)NCCCN(C)C)ccc1-c1cc(O)c2ncccc2c1` [Compound 320, N-(3-(dimethylamino)propyl)-4-(8-hydroxyquinolin-6-yl)-3-methylbenzamide]: the pIC50 is 5.30 to 6.30.

Turning to `Nc1cc(N2CCCC(F)(c3ccccc3Br)C2)nc(N)n1` (centres unmarked) [Compound 228, 6-(3-(2-bromophenyl)-3-fluoropiperidin-1-yl)pyrimidine-2,4-diamine], the pIC50 was 5.30 to 6.30.

Take `CC(C)c1cc(N2CCNC(c3cc(O)ccc3Br)C2)nc(N)n1` (centres unmarked) [Compound 163, 3-(4-(2-amino-6-isopropylpyrimidin-4-yl)piperazin-2-yl)-4-bromophenol]: the pIC50 is more than 6.30.

On to `CC(C)c1cc(N2CCCC(n3c(=O)[nH]c4ccccc43)C2)nc(N)n1` (centres unmarked) [Compound 252, 1-(1-(2-amino-6-isopropylpyrimidin-4-yl)piperidin-3-yl)-1,3-dihydro-2H-benzo[d]imidazol-2-one], for which the pIC50 was 5.30 to 6.30.

On to `Nc1nc(N)c(F)c(N2CCOC(c3ccccc3Br)C2)n1` (single isomer, unassigned) [Compound 48, (S/R)-6-(2-(2-bromophenyl)morpholino)-5-fluoropyrimidine-2,4-diamine], for which the pIC50 was less than 5.30.

For `CN1CC(NC(=O)c2ccc(-c3cc(O)c4ncccc4c3)cc2)C1` [Compound 291, 4-(8-hydroxyquinolin-6-yl)-N-(1-methylazetidin-3-yl)benzamide], the pIC50 was more than 6.30.

Turning to `CC(C)c1cc(N2CCCC(c3cnc4ccccn34)C2)nc(N)n1` (centres unmarked) [Compound 178, 4-(3-(imidazo[1,2-a]pyridin-3-yl)piperidin-1-yl)-6-isopropylpyrimidin-2-amine], the pIC50 is more than 6.30.

Regarding `CN(C)CCCNC(=O)c1ccc(-c2cc(O)c3ncccc3c2)c(F)c1Cl` [Compound 310, 2-chloro-N-(3-(dimethylamino)propyl)-3-fluoro-4-(8-hydroxyquinolin-6-yl)benzamide], the pIC50 is 5.30 to 6.30.

Turning to `CN(C)CCCNC(=O)c1cnc(-c2cc(O)c3ncccc3c2)nc1` [Compound 282, N-(3-(dimethylamino)propyl)-2-(8-hydroxyquinolin-6-yl)pyrimidine-5-carboxamide], the pIC50 was more than 6.30.

Take `CC(C)c1cc(N2CC[C@@H](F)[C@@H](c3ncn4ccccc34)C2)nc(N)n1` (racemic) [Compound 229, 4-((3R,4R)-4-fluoro-3-(imidazo[1,5-a]pyridin-1-yl)piperidin-1-yl)-6-isopropylpyrimidin-2-amine]: the pIC50 was less than 5.30.

For the compound `Nc1nc(N2CCCC(c3ccn[nH]3)C2)c2[nH]ccc2n1` (centres unmarked) [Compound 206, 4-(3-(1H-pyrazol-5-yl)piperidin-1-yl)-5H-pyrrolo[3,2-d]pyrimidin-2-amine], the pIC50 was less than 5.30.

Take `CNc1cc(N2CCCC(c3cnc4ccccn34)C2)nc(NC)n1` (racemic) [Compound 124, (R/S)-6-(3-(imidazo[1,2-a]pyridin-3-yl)piperidin-1-yl)-N2,N4-dimethylpyrimidine-2,4-diamine]: the pIC50 was 5.30 to 6.30.

For the compound `CN(C)[C@H]1C[C@@H](NC(=O)c2csc(-c3cc(O)c4ncccc4c3)c2)C1` [Compound 264, N-(cis-3-(dimethylamino)cyclobutyl)-5-(8-hydroxyquinolin-6-yl)thiophene-3-carboxamide], the pIC50 is more than 6.30.

On to `CC(C)c1cc(N2CCCC(c3nnc4ccccn34)C2)nc(N)n1` (centres unmarked) [Compound 194, 4-(3-([1,2,4]triazolo[4,3-a]pyridin-3-yl)piperidin-1-yl)-6-isopropylpyrimidin-2-amine], for which the pIC50 was 5.30 to 6.30.

On to `CC(C)c1nc(N)cc(N2CCOC(c3ccccc3Br)C2)n1` (single isomer, unassigned) [Compound 73, (R/S)-6-(2-(2-bromophenyl)morpholino)-2-isopropylpyrimidin-4-amine], for which the pIC50 is 5.30 to 6.30.

As for `CN(C)CCCNC(=O)c1ccc(-c2cc3cccnc3c(O)c2Cl)cc1` [Compound 321, 4-(7-chloro-8-hydroxyquinolin-6-yl)-N-(3-(dimethylamino)propyl)benzamide], the pIC50 is more than 6.30.

`CC(C)c1cc(N2CCCC(c3cnc4ccccn34)C2)c2cc[nH]c2n1` (centres unmarked) [Compound 370, 3-(1-(6-isopropyl-1H-pyrrolo[2,3-b]pyridin-4-yl)piperidin-3-yl)imidazo[1,2-a]pyridine]: the pIC50 was more than 6.30.
